Publication PMC6720883, “In Vitro Inhibitory Effects of APINACA on Human Major Cytochrome P450, UDP-Glucuronosyltransferase Enzymes, and Drug Transporters” (Molecules, 2019)
Where two headings read alike, the source gives them in different places.

Assays:
CYP3A4 [1] = biological target: T1, CYP3A4 (Homo sapiens, UniProt P08684); conditions: cited from earlier work
OATP1B3 = OATP1B3 (Homo sapiens, UniProt Q9NPD5)
OATP1B1 = biological target: T2, OATP1B1 (Homo sapiens, UniProt Q9Y6L6); assay: Uptake of [3-H]estrone-3-sulfate in HEK293-OATP1B1 cells; type: in vitro ADME; conditions: HEK293-OATP1B1 cells; 0.1 μM [3-H]estrone-3-sulfate; 5 min uptake
T2 construct: host or cells: HEK293 (transient overexpression)
T2 sequence (Q9Y6L6 1-691): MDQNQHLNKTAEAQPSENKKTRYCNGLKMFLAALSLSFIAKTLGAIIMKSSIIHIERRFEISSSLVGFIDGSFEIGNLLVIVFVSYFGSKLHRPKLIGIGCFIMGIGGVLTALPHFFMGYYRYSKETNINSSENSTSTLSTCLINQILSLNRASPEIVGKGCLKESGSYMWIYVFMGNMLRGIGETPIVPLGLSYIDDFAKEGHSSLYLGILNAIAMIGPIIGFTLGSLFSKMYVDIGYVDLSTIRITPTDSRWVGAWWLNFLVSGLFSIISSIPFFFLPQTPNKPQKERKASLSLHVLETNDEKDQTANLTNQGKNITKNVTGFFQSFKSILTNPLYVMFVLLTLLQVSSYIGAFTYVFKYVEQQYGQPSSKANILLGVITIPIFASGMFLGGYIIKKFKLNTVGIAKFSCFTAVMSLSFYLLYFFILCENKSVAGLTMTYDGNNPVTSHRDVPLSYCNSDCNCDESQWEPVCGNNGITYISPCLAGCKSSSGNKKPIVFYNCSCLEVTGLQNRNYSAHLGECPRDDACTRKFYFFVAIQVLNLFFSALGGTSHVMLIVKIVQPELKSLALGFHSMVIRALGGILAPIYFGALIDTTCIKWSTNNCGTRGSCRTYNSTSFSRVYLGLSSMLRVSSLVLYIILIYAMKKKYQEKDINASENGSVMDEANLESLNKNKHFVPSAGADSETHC
Protocol: To examine the effects of APINACA and typical inhibitors on transporter activity, the uptake of a probe substrate into HEK293 cells overexpressing the respective solute carrier transporters was measured in the presence of APINACA (final concentrations of 0–250 μM) or typical inhibitors for 5 min. The concentrations and probe substrates were selected as follows: 0.1 μM [3-H]MPP^+ (for OCT1 and OCT2), 0.1 μM [3-H]PAH (for OAT1), 0.1 μM [3-H]ES (for OAT3 and OATP1B1), and 0.1 μM [3-H]EG (for OATP1B3).
(§1) 12.5 (Systat Software, Inc.; San Jose, CA, USA). […] 1.1 (Systat Software, Inc.).

UGT1A1 = biological target: T3, UGT1A1 (Homo sapiens, UniProt P22309); assay: biochemical; type: in vitro ADME
T3 construct: […]; tissue Corning Life Sciences
T3 sequence (P22309 26-533): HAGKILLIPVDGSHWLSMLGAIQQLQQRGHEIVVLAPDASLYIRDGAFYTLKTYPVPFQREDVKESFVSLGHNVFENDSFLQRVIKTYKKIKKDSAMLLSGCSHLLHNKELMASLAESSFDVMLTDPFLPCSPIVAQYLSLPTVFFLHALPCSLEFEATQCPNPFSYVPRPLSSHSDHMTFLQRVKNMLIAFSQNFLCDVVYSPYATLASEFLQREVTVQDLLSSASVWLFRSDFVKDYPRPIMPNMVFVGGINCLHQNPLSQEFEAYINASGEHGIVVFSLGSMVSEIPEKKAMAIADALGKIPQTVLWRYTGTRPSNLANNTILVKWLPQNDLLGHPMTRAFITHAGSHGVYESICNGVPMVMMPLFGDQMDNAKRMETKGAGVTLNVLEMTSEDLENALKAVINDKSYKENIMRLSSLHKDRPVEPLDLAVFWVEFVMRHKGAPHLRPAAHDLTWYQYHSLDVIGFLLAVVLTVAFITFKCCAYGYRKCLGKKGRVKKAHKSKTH
Description: as §1

UGT1A9 [2] = biological target: T4, UGT1A9 (Homo sapiens, UniProt O60656); parameters: […]; tissue Corning Life Sciences; method as in PMID 23230132; conditions: human liver microsomes; read-out: Ki for inhibition of UGT1A9-mediated ethanol glucuronidation; cited from earlier work
T4 sequence (O60656 26-530): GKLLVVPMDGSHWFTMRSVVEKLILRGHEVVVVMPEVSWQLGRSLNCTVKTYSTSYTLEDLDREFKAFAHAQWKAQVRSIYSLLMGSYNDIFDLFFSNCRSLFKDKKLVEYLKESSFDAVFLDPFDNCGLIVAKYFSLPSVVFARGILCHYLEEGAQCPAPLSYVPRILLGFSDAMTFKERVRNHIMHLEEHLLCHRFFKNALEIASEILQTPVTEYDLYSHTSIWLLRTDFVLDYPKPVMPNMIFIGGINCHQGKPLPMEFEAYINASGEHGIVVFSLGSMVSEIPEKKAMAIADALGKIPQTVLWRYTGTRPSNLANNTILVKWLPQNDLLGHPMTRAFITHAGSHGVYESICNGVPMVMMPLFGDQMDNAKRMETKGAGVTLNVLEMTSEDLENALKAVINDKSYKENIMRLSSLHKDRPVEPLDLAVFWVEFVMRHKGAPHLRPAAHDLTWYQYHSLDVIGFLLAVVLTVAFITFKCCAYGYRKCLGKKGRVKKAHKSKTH

CYP3A4 [3] = biological target: T1, CYP3A4; parameters: method as in PMID 22490230; conditions: human liver microsomes; cited from earlier work
UGT1A9 [4] = biological target: T4, UGT1A9; assay: Inhibition of UGT1A9-catalyzed mycophenolic acid glucuronidation in human liver microsomes; type: in vitro ADME; parameters: […]; tissue Corning Life Sciences; conditions: pooled human liver microsomes; 0.2 µM mycophenolic acid; without preincubation (●); read-out: IC50 UGT1A9 mycophenolic acid glucuronidation, without preincubation
Description: as §1

T1 sequence (P08684 2-503): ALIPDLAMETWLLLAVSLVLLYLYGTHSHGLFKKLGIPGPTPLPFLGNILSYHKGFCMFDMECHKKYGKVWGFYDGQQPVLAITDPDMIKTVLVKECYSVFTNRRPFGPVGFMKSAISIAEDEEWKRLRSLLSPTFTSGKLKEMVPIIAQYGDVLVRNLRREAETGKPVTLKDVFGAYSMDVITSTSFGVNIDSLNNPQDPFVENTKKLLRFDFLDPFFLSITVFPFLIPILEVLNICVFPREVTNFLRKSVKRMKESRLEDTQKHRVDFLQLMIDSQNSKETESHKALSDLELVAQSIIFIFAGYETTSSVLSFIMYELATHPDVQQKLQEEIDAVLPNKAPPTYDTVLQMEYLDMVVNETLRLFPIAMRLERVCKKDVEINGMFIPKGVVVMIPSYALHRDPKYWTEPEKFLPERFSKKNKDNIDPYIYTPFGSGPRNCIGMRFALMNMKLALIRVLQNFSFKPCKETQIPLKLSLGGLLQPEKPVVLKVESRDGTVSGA
OATP1B3, sequence (Q9NPD5 whole entry): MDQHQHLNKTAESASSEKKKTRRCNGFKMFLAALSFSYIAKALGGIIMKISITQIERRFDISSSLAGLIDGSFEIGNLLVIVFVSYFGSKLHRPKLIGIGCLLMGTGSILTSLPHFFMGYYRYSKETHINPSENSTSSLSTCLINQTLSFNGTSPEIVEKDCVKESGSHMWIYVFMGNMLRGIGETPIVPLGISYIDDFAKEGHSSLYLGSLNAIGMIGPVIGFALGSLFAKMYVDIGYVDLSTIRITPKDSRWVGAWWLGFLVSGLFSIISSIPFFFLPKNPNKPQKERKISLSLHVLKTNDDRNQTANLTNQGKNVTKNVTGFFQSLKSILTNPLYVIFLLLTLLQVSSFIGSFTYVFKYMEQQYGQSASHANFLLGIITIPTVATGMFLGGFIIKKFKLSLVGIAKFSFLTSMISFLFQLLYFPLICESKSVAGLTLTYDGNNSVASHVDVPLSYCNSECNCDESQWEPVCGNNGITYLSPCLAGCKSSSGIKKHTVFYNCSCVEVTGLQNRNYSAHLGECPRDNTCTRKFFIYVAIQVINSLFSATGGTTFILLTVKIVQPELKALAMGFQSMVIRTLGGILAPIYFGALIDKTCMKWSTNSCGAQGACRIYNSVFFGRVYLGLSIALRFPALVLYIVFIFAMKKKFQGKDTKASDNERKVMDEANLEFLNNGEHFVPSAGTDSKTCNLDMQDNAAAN

SMILES: O=C(c1cccc2ccccc12)c1cn(CCCCCF)c2ccccc12 [AM-2201]
- Ki (CYP3A4 [1]; competitive inhibition, read-out: Ki for competitive inhibition of CYP3A4-catalyzed midazolam 1′-hydroxylation): 4 µM

SMILES: CCc1ccc(C(=O)c2cn(CCCCCF)c3ccccc23)c2ccccc12 [EAM-2201]
- kinact for CYP3A4-catalyzed midazolam 1′-hydroxylation (CYP3A4 [1]; human liver microsomes): 0.0250 min⁻¹

SMILES: Cc1ccc(C(=O)c2cn(CCCCCF)c3ccccc23)c2ccccc12 [MAM-2201]
- Ki (CYP3A4 [1]; noncompetitive inhibition, read-out: Ki for noncompetitive inhibition of CYP3A4-catalyzed midazolam 1′-hydroxylation): 5.4 µM

SMILES: CO[C@H]1/C=C/O[C@@]2(C)Oc3c(C)c(O)c4c(O)c(c(/C=N/N5CCN(C)CC5)c(O)c4c3C2=O)NC(=O)/C(C)=C\C=C\[C@H](C)[C@H](O)[C@@H](C)[C@@H](O)[C@@H](C)[C@H](OC(C)=O)[C@@H]1C [Rifampin, reference compound]
- IC50 (OATP1B3): 0.99 µM
- IC50 (OATP1B1): 22.8 µM

SMILES: COC(=O)N[C@H](C(=O)N[C@@H](Cc1ccccc1)[C@@H](O)CN(Cc1ccc(-c2ccccn2)cc1)NC(=O)[C@@H](NC(=O)OC)C(C)(C)C)C(C)(C)C [atazanavir, reference compound]
- IC50 (UGT1A1): 0.7 µM

SMILES: C=C(C)[C@@H]1CCC(C)=C[C@H]1c1c(O)cc(CCCCC)cc1O [cannabidiol]
- Ki (UGT1A9 [2]): 9.9 µM

SMILES: CC[C@H]1OC(=O)[C@H](C)[C@@H](O[C@H]2C[C@@](C)(OC)[C@@H](O)[C@H](C)O2)[C@H](C)[C@@H](O[C@@H]2O[C@H](C)C[C@H](N(C)C)[C@H]2O)[C@](C)(OC)C[C@@H](C)C(=O)[C@H](C)[C@@H](O)[C@]1(C)O [clarithromycin]
- inactivation efficiency (kinact/Ki) for time-dependent inhibition of CYP3A4 (CYP3A4 [3]): 46.7 M⁻¹ s⁻¹

SMILES: C=CCc1ccc(O)c(-c2cc(CC=C)ccc2O)c1 [magnolol, reference compound]
- IC50 (UGT1A9 [4]): 9.7 µM
